Measurements as given in US20080226596A1, “Therapeutic compositions and methods useful in treating hepatitis” (priority 2006, published 2008).
“Also recorded” adds a separate entry of the source.

What was measured:
SHP-1 = molecular target: T1, SHP-1 (Mus musculus, UniProt P29351); experiment: In vitro PTPase assay, recombinant GST/SHP-1; assay type: biochemical; conditions: for inhibitory activity against SHP-1: 3-4 μg/ml or 10-100 μg/ml
T1 construct: made in house
Experimental: In vitro PTPase activities were measured using the commercial protein tyrosine phosphatase assay kit (Upstate Biotechnology, Inc. (“UBI”)) following established procedure known to one of skill in the art. This assay measures the in vitro dephosphorylation of a synthetic phosphotyrosine peptide of the sequence Arg-Arg-Leu-Ile-Glu-Asp-Ala-Gle-Tyr-Ala-Ala-Arg-Gly, wherein the tyrosine is phosphorylated (SEQ ID NO: 3). Briefly, 0.01 µg of GST/PTPase fusion proteins was incubated in 50 μL of Tris buffer (10 mM Tris, pH 7.4) containing different concentrations of inhibitors or chemicals (0-1,000 μg/ml) at 22° C. for 10 minutes, followed by addition of 0.2 mM of the phosphotyrosine peptide and incubation at 22° C. for 18 hours. 100 μL of Malachite Green solution was added and incubated for 5 minutes, and the absorbance at 660 nm was measured after 5 minutes.
In vitro PTPase assays were used to determine the effects of compounds on recombinant PTPases, following established procedures using a synthetic phosphotyrosine peptide or DiFMUP as the substrate (Pathak et al., J. Imumol. 167, 3391 (2001)). Briefly, individual PTPases (0.1 µg/reaction) in 50 μL of PTPase buffer (50 mM Tris, pH 7.4) were incubated at 22° C. for 10 minutes or as indicated in the absence or presence of inhibitory compounds. Substrates (0.2 mM phosphotyrosine peptide) were then added and allowed to react at 22° C. for 18 hrs. PTPase activity of individual reactions was measured by adding 100 µL of malachite green solution (UBI) and then quantifying the amounts of free phosphate cleaved by the PTPase from the peptide substrate by spectrometry (OD660 nm). PTPase assays using DiFMUP as a substrate were conducted following a previously described procedure (Matter, et al., Biochem. Biophys. Res. Comm. 283, 1061 (2001)). Relative PTPase activities were calculated based on the formula: (PTPase activity in the presence of an inhibitory compound/PTPase activity in the absence of the compound)× 100%. To assess the reversibility of PTPase inhibition, GST fusion proteins of the PTPases bound on glutathione beads (Pharmacia) were pre-incubated with cold Tris buffer (50 mM Tris, pH 7.0) or Tris buffer containing the inhibitor at 4° C. for 30 minutes. The beads were then washed three times in cold Tris buffer or not washed prior to subjecting to in vitro PTPase assays.
In vitro PTPase assays were used to determine the effects of levamisole (Sigma), pentamidine (American Pharmaceutical Partners, Inc.), and ketoconazole (Sigma) on recombinant PTPases, following established procedures (Pathak et al., J. Imumol. 167, 3391 (2001); Pathak et al., Leukemia 16, 2285 (2002), Yi et al., J. Immunol. 169, 5978 (2002)) using a synthetic phosphotyrosine peptide or DiFMUP as the substrate as detailed above in section I.A.2.

WM9 cells = experiment: WM9 melanoma cell growth, MTT assay; assay type: cell-based, human
Experimental: For cell proliferation assays, cells were grown in 10% FCS culture medium containing various amounts of IFNs and/or sodium stibogluconate in 96 well plates and cultured at 37° C. for 3 or 6 days as indicated. The numbers of viable cells in proliferation assays were determined by MTT assays as described in Phatak et al., J. Immunol. 167, 3391 (2001).
Dose response curves were generated for each drug alone, and also the combinations. Median effect plots were generated for IFNs alone, sodium stibogluconate alone, and the combination. The combination index (CI) was determined and plotted vs. fraction affected (FA). Data were analyzed in both modes, mutually exclusive and mutually nonexclusive. The interaction between two mutually nonexclusive drugs is described by the Equation CI=D1/Dx1+D2/Dx2+D1D2/Dx1Dx2, where Dx1 and Dx2 are the doses of drug 1 and drug 2 that are required to inhibit growth x %. […] When CI<1, drugs are synergistic, when CI=1, drugs are additive, and when CI>1, drugs are antagonistic.
Renca (Murphy, G. P., and W. J. Hrushesky. 1973. A murine renal cell carcinoma. J Natl Cancer Inst 50:1013), Jurkat (Gillis, S., and J. Watson. 1980. Biochemical and biological characterization of lymphocyte regulatory molecules. V. Identification of an interleukin 2-producing human leukemia T cell line. J Exp Med 152:1709) and WM9 (Forsberg, K., I. Valyi-Nagy, C. H. Heldin, M. Herlyn, and B. Westermark. 1993. Platelet-derived growth factor (PDGF) in oncogenesis: development of a vascular connective tissue stroma in xenotransplanted human melanoma producing PDGF-BB. Proc Natl Acad Sci USA 90:393) cell lines were obtained from a colleague at the Cleveland Clinic Foundation (CCF) and cultured in RPMI 1640 medium supplemented with 10% fetal calf serum (FCS). […] SSG has been described previously (Yi, T., M. K. Pathak, D. J. Lindner, M. E. Ketterer, C. Farver, and E. C. Borden. 2002. Anticancer activity of sodium stibogluconate in synergy with IFNs. J Immunol 169:5978).
NIH3T3 (Yi, et al., Blood 85, 87 (1995)), WM9 (Forsberg, et al., Proc. Nat. Acad Sci. USA 90, 393 (1993)), DU145 (Mickey, et al., Cancer Res. 37, 4049 (1977)), LoVo (Drewinko, et al., Cancer Res. 36, 467 (1976)), HEY (Buick, et al., Cancer Res. 45, 3668 (1985)), U251 (Yoshida, et al., Cancer 50, 410 (1982)), A549 (Giard, et al., J. Natl. Cancer Inst. 51, 1417 (1973)) and SK-N-SH (Helson, et al., Cancer Res. 35, 2594 (1975)) cell lines have been described and were cultured in RPMI 1640 supplemented with 10% fetal calf serum (FCS). For measurement of sodium stibogluconate effects on cell growth in vitro, cells were cultured in the absence (−) or presence (+) of various amounts of sodium stibogluconate for 6 days with viable cells quantified by MTT assays (Mosmann, J. Immunol. Methods 65, 55 (1983)). Percentages of growth inhibition by sodium stibogluconate were calculated (.+−.x

T1 sequence (P29351 whole entry): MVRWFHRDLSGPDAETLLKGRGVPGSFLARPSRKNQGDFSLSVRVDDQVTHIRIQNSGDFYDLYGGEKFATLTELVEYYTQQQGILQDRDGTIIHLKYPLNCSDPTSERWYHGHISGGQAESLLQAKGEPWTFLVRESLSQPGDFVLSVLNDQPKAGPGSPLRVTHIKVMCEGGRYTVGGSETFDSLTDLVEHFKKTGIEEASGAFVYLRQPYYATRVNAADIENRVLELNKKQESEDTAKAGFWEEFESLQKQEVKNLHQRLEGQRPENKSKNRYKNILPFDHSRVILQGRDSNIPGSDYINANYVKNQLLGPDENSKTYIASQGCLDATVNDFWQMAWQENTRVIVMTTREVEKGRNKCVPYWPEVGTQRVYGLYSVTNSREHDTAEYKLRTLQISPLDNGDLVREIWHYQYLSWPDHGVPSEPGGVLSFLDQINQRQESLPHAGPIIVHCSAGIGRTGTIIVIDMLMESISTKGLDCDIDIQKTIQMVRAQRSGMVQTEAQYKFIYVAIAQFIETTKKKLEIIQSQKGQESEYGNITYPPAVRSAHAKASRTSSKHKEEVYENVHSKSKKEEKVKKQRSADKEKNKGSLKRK

| Compound | inhibitory activity against SHP-1 (SHP-1) | IFN-alpha-induced growth inhibition of WM9 with pentamidine (WM9 cells; most obviously at 0.625-1.25 μg/ml) | SHP-1 phosphatase activity (SHP-1; 10 μg/ml) | WM9 cell growth (WM9 cells; SSG, 6 days, comparable conditions to Renca) | killing of WM9 cells (WM9 cells; single agent, 50 and 100 μg/ml, day 6) | effect on IFN-alpha activity against WM9 (WM9 cells; ketoconazole 40 μg/ml) | activity against WM9 cells (WM9 cells; ketoconazole 0.625-20 μg/ml, single agent or with IFN-alpha) |
| --- | --- | --- | --- | --- | --- | --- | --- |
| N=C(N)c1ccc(OCCCCCOc2ccc(C(=N)N)cc2)cc1 [pentamidine] | no obvious inhibitory activity | augmented IFN-alpha-induced growth inhibition |  |  |  |  |  |
| O.O.O.O.O.O.O.O.O.O=C([O-])[C@@H]1[O][Sb]2([O-])([O][Sb]34([OH])[O][C@H]([C@H](O)CO)[C@H]([O]3)[C@H](C(=O)[O-])[O]4)[O][C@H]([C@H](O)CO)[C@@H]1[O]2.[Na+].[Na+].[Na+] [sodium stibogluconate] |  |  | almost completely inhibited; also recorded: inactivated SHP-1 | inhibited by SSG in a dose-dependent manner | killed all cells |  |  |
| CC(=O)N1CCN(c2ccc(OCC3COC(Cn4ccnc4)(c4ccc(Cl)cc4Cl)O3)cc2)CC1 (centres unmarked) [ketoconazole] | no obvious inhibitory activity |  |  |  |  | minor augmenting effect on IFN-alpha activity | no apparent activity |
